Assay results: patent US7772245B2, “Inhibitors of histone deacetylase” (Miikana Therapeutics, Inc., priority 2005, dated 2010)

Tests used:
HCT116 cells = assay: Whole cell cytotoxicity assay: Sulforhodamine B; format: cell-based; details: Homo sapiens, HCT-116; 100 μM compound; 48 hours incubation with drug; Sulforhodamine B staining; read-out: % Inhibition of HCT116 cell growth @ 100 μM
Method: [The source words this procedure for another cell line and reports this cell line under the same test.] The following procedure can be found on the Developmental Therapeutics Program NCl/NIH web site at http://dtp.nci.nih.gov/brancehes/btb/ivclsp.html. • 1. Human tumor cell lines of HT29, A549 and MCF7 are grown in DMEM containing 10% fetal bovine serum and 2 mM L-glutamine. Cells are plated in a 96 well plate at a density of 5000 cells per well in 100 μL of growth medium and incubated at 37° C., 5% CO2, for 24 hours prior to the addition of experimental compounds. • 2. Experimental drugs are solubilized in DMSO for a final concentration of 20 mM immediately prior to use. Drugs are further diluted in growth media for a total of nine drug concentrations and a growth control. At the 24 hour time point, one plate of cells is fixed in situ with TCA as a measurement of the cell population at time zero, or the time of drug addition. • 3. The plates are further incubated with drug for an additional 48 hours. • 4. The cells are fixed in situ by gently aspirating off the culture media and then adding 50 μL of ice cold 10% TCA per well and incubated at 4° C. for 60 minutes. The plates are washed with tap water five times and allowed to air dry for 5 minute. • 5. 50 μL of a 0.4% (w/v) Sulforhodamine B solution in 1% (v/v) acetic acid is added per well and incubated for 30 minutes at room temperature. • 6. Following staining, plates are washed five times with 1% acetic acid to remove any unbound dye and then allowed to air dry for 5 minutes. • 7. Stain is solubilized with 100 μL of 10 mM Tris pH 10.5 per well and placed on an orbital rotator for 5 minutes. • 8. Absorbance is read at 570 nm.

HDAC = assay: In vitro fluorescent histone deacetylase assay (Biomol HDAC fluorescent activity kit, HeLa cell nuclear extract); format: biochemical; details: 100 μM compound; HeLa cell nuclear extract as source of HDAC activity; 50 μM substrate, 10 min at room temperature
Method: Histone deacetylase (HDAC) activity assays were performed using the HDAC fluorescent activity assay/drug discovery kit (Biomol Research Laboratories, Plymouth Meeting, Pa.) essentially according to the manufacturer's instructions. The included HeLa cell nuclear extract, which contains a mosaic of HDAC enzymes and other nuclear factors, was used as the source of HDAC activity. The final substrate concentration in the assay mixture was 50 μM. The reaction was allowed to proceed for 10 min at room temperature before stopping the reaction. Test compounds were prepared as 20 mM stock solutions in DMSO (Molecular Biology grade, Sigma-Aldrich Co., St. Louis, Mo.) and stored at −70° C. Serial dilutions of test compounds were prepared in assay buffer immediately prior to testing. DMSO was determined in a separate trial to have no significant effect on the activity of this assay at concentrations up to 5%; the final DMSO concentration in the wells was no more than 2% and therefore DMSO effects were safely neglected. Assays were performed in white polystyrene 96-well half-area assay plates (Corning, Corning, N.Y.) and measured on a Wallace 1420 fluorescent plate reader (Wallac Oy, Turku, Finland) with an excitation wavelength of 355 nm, an emission wavelength of 460 nm, and a 1 sec signal averaging time.

Compound | inhibition at 100 µM (HCT116 cells) | % Inhibition of HDAC @ 100 μM (HDAC)
O=C(/C=C/c1ccc(N2CCc3c([nH]c4ccccc34)C2)cc1)NO [Example 22, (2E)-N-hydroxy-3-[4-(1,3,4,9-tetrahydro-2H-b-carbolin-2-yl)phenyl]acrylamide] | 98.2% | 98.2%
O=C(NO)c1cnc(N2CCc3c(n(CCN4CCCC4)c4ccccc34)C2)nc1 [Example 23, N-hydroxy-2-{9-[2-pyrrolidin-1-ylethyl]-1,3,4,9-tetrahydro-2H-b-carbolin-2-yl}pyrimidine-5-carboxamide] | 98.1% | 99.3%
O=C(NO)c1cnc(N2CCc3c(n(CCN4CCCCC4)c4ccccc34)C2)nc1 [Example 24, N-hydroxy-2-[9-(2-piperidin-1-ylethyl)-1,3,4,9-tetrahydro-2H-b-carbolin-2-yl]pyrimidine-5-carboxamide] | 98.9% | 99%
O=C(NO)c1cnc(N2CCc3c(n(CCN4CCOCC4)c4ccccc34)C2)nc1 [Example 25, N-hydroxy-2-[9-(2-morpholin-4-ylethyl)-1,3,4,9-tetrahydro-2H-b-carbolin-2-yl]pyrimidine-5-carboxamide] | 94% | 98%
O=C(NO)c1cnc(N2CCc3c(n(S(=O)(=O)c4ccccc4)c4ccccc34)C2)nc1 [Example 26, N-hydroxy-2-[9-(phenylsulfonyl)-1,3,4,9-tetrahydro-2H-b-carbolin-2-yl]pyrimidine-5-carboxamide] | 99% | 98.9%
Cn1c2c(c3ccccc31)CCN(c1ncc(C(=O)NO)cn1)C2 [Example 27, N-hydroxy-2-(9-methyl-1,3,4,9-tetrahydro-2H-b-carbolin-2-yl)pyrimidine-5-carboxamide] | 98.9% | 98.3%
O=C(NO)c1cnc(N2CCc3c(n(Cc4ccccc4)c4ccccc34)C2)nc1 [Example 28, N-hydroxy-2-(9-benzyl-1,3,4,9-tetrahydro-2H-b-carbolin-2-yl)pyrimidine-5-carboxamide] | 98.7% | 95.2%
CC(=O)n1c2c(c3ccccc31)CCN(c1ncc(C(=O)NO)cn1)C2 [Example 29, 2-(9-acetyl-1,3,4,9-tetrahydro-2H-b-carbolin-2-yl)-N-hydroxypyrimidine-5-carboxamide] | 98% | 99.8%
O=C(NO)c1cnc(N2CCc3c(n(CN4CCCC4)c4ccccc34)C2)nc1 [Example 30, N-hydroxy-2-{9-[2-pyrrolidin-1-ylmethyl]-1,3,4,9-tetrahydro-2H-b-carbolin-2-yl}pyrimidine-5-carboxamide] | 96.8% | 98.1%
COc1ccc2c(c1)CN(c1ncc(C(=O)NO)cn1)CC2 [Example 31, 2-(7-methoxy-3,4,dihydroisoquinolin-2(1H)-yl)-N-hydroxypyrimidine-5-carboxamide] | 99.5% | 100%
O=C(NO)c1cnc(N2Cc3cccc4cccc(c34)C2)nc1 [Example 32, 2-(1H-benzo[de]isoquinolin-2(3H)-yl)-N-hydroxypyrimidine-5-carboxamide] | 94.6% | 96.6%
Cc1cc2c3c([nH]c2cc1Cl)CCN(c1ncc(C(=O)NO)cn1)C3 [Example 34, N-hydroxy-2-(7-chloro-8-methyl-1,3,4,5-tetrahydro-2H-pyrido[4,3-b]indol-2-yl)pyrimidine-5-carboxamide] | 99.3% | 99.1%
O=C(NO)c1cnc(N2CCc3[nH]c4cc(F)ccc4c3C2)nc1 [Example 35, N-hydroxy-2-(7-fluoro-1,3,4,5-tetrahydro-2H-pyrido[4,3-b]indol-2-yl)pyrimidine-5-carboxamide] | 97.3% | 99.9%
Cc1ccc2c3c([nH]c2c1)CCN(c1ncc(C(=O)NO)cn1)C3 [Example 36, N-hydroxy-2-(7-methyl-1,3,4,5-tetrahydro-2H-pyrido[4,3-b]indol-2-yl)pyrimidine-5-carboxamide] | 98.3% | 99.8%
O=C(NO)c1cnc(N2CCc3[nH]c4ccc([N+](=O)[O-])cc4c3C2)nc1 [Example 37, N-hydroxy-2-(8-nitro-1,3,4,5-tetrahydro-2H-pyrido[4,3-b]indol-2-yl)pyrimidine-5-carboxamide] | 97.1% | 99.9%
CC(C)c1ccc2[nH]c3c(c2c1)CN(c1ncc(C(=O)NO)cn1)CC3 [Example 38, N-hydroxy-2-{8-isopropyl-1,3,4,5-tetrahydro-2H-pyrido[4,3-b]indol-2-yl}pyrimidine-5-carboxamide] | 99.5% | 99.8%
CC(C)(C)c1ccc2[nH]c3c(c2c1)CN(c1ncc(C(=O)NO)cn1)CC3 [Example 39, N-hydroxy-2-{8-tert-butyl-1,3,4,5-tetrahydro-2H-pyrido[4,3-b]indol-2-yl}pyrimidine-5-carboxamide] | 99.4% | 98.8%
COc1ccc(-c2ccc3[nH]c4c(c3c2)CN(c2ncc(C(=O)NO)cn2)CC4)cc1 [Example 40, N-hydroxy-2-{8-[4-methoxyphenyl]-1,3,4,5-tetrahydro-2H-pyrido[4,3-b]indol-2-yl}pyrimidine-5-carboxamide] | 98.3% | 99.8%
Cc1ccc(-c2ccc3[nH]c4c(c3c2)CN(c2ncc(C(=O)NO)cn2)CC4)cc1 [Example 41, N-hydroxy-2-{8-[4-methylphenyl]-1,3,4,5-tetrahydro-2H-pyrido[4,3-b]indol-2-yl}pyrimidine-5-carboxamide] | 98.7% | 99.6%
O=C(NO)c1cnc(N2CCc3[nH]c4ccc(-c5cccc(CO)c5)cc4c3C2)nc1 [Example 43, N-hydroxy-2-{8-[3-(hydroxymethyl)phenyl]-1,3,4,5-tetrahydro-2H-pyrido[4,3-b]indol-2-yl}pyrimidine-5-carboxamide] | 98.7% | 100%
O=C(NO)c1cnc(N2CCc3[nH]c4ccc(-c5cccc(F)c5)cc4c3C2)nc1 [Example 44, N-hydroxy-2-{8-[3-fluorophenyl]-1,3,4,5-tetrahydro-2H-pyrido[4,3-b]indol-2-yl}pyrimidine-5-carboxamide] | 97.6% | 99.9%
O=C(NO)c1cnc(N2CCc3[nH]c4ccc(-c5ccc(F)cc5)cc4c3C2)nc1 [Example 45, N-hydroxy-2-{8-[4-fluorophenyl]-1,3,4,5-tetrahydro-2H-pyrido[4,3-b]indol-2-yl}pyrimidine-5-carboxamide] | 98.9% | 99.9%
O=C(NO)c1cnc(N2CCc3[nH]c4ccc(-c5ccco5)cc4c3C2)nc1 [Example 46, N-hydroxy-2-{8-(fur-2-yl)-1,3,4,5-tetrahydro-2H-pyrido[4,3-b]indol-2-yl}pyrimidine-5-carboxamide] | 98.6% | 99.8%
CN(C)c1ccc(-c2ccc3[nH]c4c(c3c2)CN(c2ncc(C(=O)NO)cn2)CC4)cc1 [Example 48, N-hydroxy-2-{8-[4-dimethylaminophenyl]-1,3,4,5-tetrahydro-2H-pyrido[4,3-b]indol-2-yl}pyrimidine-5-carboxamide] | 97.8% | 99.7%
CSc1cccc(-c2ccc3[nH]c4c(c3c2)CN(c2ncc(C(=O)NO)cn2)CC4)c1 [Example 49, N-hydroxy-2-{8-[3-(methylthio)phenyl]-1,3,4,5-tetrahydro-2H-pyrido[4,3-b]indol-2-yl}pyrimidine-5-carboxamide] | 99.3% | 99.9%
CC(=O)Nc1ccc(-c2ccc3[nH]c4c(c3c2)CN(c2ncc(C(=O)NO)cn2)CC4)cc1 [Example 50, N-hydroxy-2-{8-[4-(N-acetamido)phenyl]-1,3,4,5-tetrahydro-2H-pyrido[4,3-b]indol-2-yl}pyrimidine-5-carboxamide] | 89.1% | 99.7%
